Measured values published in publication PMC8445441, “Elucidating the mechanism by which synthetic helper peptides sensitize Pseudomonas aeruginosa to multiple antibiotics” (PLoS Pathogens, 2021).
Where “and” joins values, the source holds several entries; their conditions need not be identical. Equal values may be shown once. Read-outs that look alike come from different tables or passages of the source.

Tests used:
P. aeruginosa AUMC-Pa-3 = test: microbe, parasite or virus in culture; conditions: strain AUMC-Pa-3; for MICac: MIC of the antibiotic in the combination: with D-11 at MICbc 4
Method in brief: (§1)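 CLSI broth dilution; MHB; ~1 × 10^6 CFU/mL suspension mixed equal volume with drug; 37 °C for 18 h; visual read; triplicate. Broth sometimes supplemented with PG, PE, PC, CL, LPS, MgCl2, CaCl2 or PAβN.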

P. aeruginosa AUMC-Pa-4 = test: microbe, parasite or virus in culture; conditions: strain AUMC-Pa-4; for MICa: MIC of the antibiotic: antibiotic alone; for MICa: MIC of the antibiotic / MICac: MIC of the antibiotic in the combination: unit not given; for MICac: MIC of the antibiotic in the combination: with D-11 at MICbc 4
Method in brief: as §1

P. aeruginosa AUMC-Pa-5 = test: microbe, parasite or virus in culture; conditions: strain AUMC-Pa-5; for MICa: MIC of the antibiotic: antibiotic alone; for MICa: MIC of the antibiotic / MICac: MIC of the antibiotic in the combination: unit not given; for MICac: MIC of the antibiotic in the combination: with D-11 at MICbc 4
Method in brief: as §1

P. aeruginosa AUMC-Pa-6 = test: microbe, parasite or virus in culture; conditions: strain AUMC-Pa-6; for MICa: MIC of the antibiotic: antibiotic alone; for MICa: MIC of the antibiotic / MICac: MIC of the antibiotic in the combination: unit not given; for MICac: MIC of the antibiotic in the combination: with D-11 at MICbc 4
Method in brief: as §1

P. aeruginosa PAO1 = test: microbe, parasite or virus in culture; conditions: PAO1
Method in brief: as §1

P. aeruginosa ATCC27853 = test: microbe, parasite or virus in culture; set-up: MICa: MIC of the antibiotic / MICac: MIC of the antibiotic in the combination: unit not given beside the values; conditions: strain ATCC27853; for FICI: antibiotic + D-11 (MICb/MICbc 32/4); for MICa: MIC of the antibiotic: antibiotic alone; for MICa: MIC of the antibiotic / MICac: MIC of the antibiotic in the combination: unit not given; for MICac: MIC of the antibiotic in the combination: with D-11 at MICbc 4
Method in brief: as §1

P. aeruginosa NR-31040 = test: microbe, parasite or virus in culture; set-up: MICa: MIC of the antibiotic / MICac: MIC of the antibiotic in the combination: unit not given beside the values; conditions: for MICac: MIC of the antibiotic in the combination: with D-11 at MICbc 4
Method in brief: as §1

P. aeruginosa NR-31041 = test: microbe, parasite or virus in culture; set-up: MICa: MIC of the antibiotic / MICac: MIC of the antibiotic in the combination: unit not given beside the values
Method in brief: as §1

P. aeruginosa PA14 = test: microbe, parasite or virus in culture; set-up: MICa: MIC of the antibiotic / MICac: MIC of the antibiotic in the combination: unit not given beside the values; conditions: strain PA14; for MICa: MIC of the antibiotic: antibiotic alone; for MICa: MIC of the antibiotic / MICac: MIC of the antibiotic in the combination: unit not given; for MICac: MIC of the antibiotic in the combination: with D-11 at MICbc 4
Method in brief: as §1

P. aeruginosa PAK = test: microbe, parasite or virus in culture; set-up: MICa: MIC of the antibiotic / MICac: MIC of the antibiotic in the combination: unit not given beside the values; conditions: strain PAK; for MICa: MIC of the antibiotic: antibiotic alone; for MICa: MIC of the antibiotic / MICac: MIC of the antibiotic in the combination: unit not given; for MICac: MIC of the antibiotic in the combination: with D-11 at MICbc 4
Method in brief: as §1

P. aeruginosa HM-214 = system: P. aeruginosa HM-214; set-up: MICa: MIC of the antibiotic / MICac: MIC of the antibiotic in the combination: unit not given beside the values; conditions: strain HM-214
Method in brief: as §1

P. aeruginosa AUMC-Pa-1 = conditions: strain AUMC-Pa-1
Method in brief: as §1

P. aeruginosa AUMC-Pa-2 = conditions: strain AUMC-Pa-2
Method in brief: as §1

[1] = system: clinical P. aeruginosa isolates; test: microbe, parasite or virus in culture; conditions: antibiotic alone; for MIC: Pseudomonas aeruginosa, 18 h
Method in brief: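 MIC is the lowest drug concentration showing no visible growth after 18 h at 37 °C. Two-fold dilutions in MHB were combined with an equal volume of bacterial suspension (about 1 × 10^6 CFU/mL), following CLSI broth microdilution, in triplicate.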

[2] = antibiotic + D-11 (MICb/MICbc 128/4)
[3] = antibiotic alone, unit not given
[4] = antibiotic + D-11 (MICb/MICbc 64/4)
[5] = strain NR-31040, unit not given
[6] = with D-11 at MICbc 4, unit not given

CN(C)c1cc(NC(=O)CNC(C)(C)C)c(O)c2c1C[C@H]1C[C@H]3[C@H](N(C)C)C(O)=C(C(N)=O)C(=O)[C@@]3(O)C(O)=C1C2=O [Tigecycline]
FICI (P. aeruginosa AUMC-Pa-3; [2]): 0.281
MICa: MIC of the antibiotic (P. aeruginosa AUMC-Pa-3; [3]): 4
MICac: MIC of the antibiotic in the combination (P. aeruginosa AUMC-Pa-3; unit not given): 1
FICI (P. aeruginosa AUMC-Pa-4; [2]): 0.281
MICa: MIC of the antibiotic (P. aeruginosa AUMC-Pa-4): 8
MICac: MIC of the antibiotic in the combination (P. aeruginosa AUMC-Pa-4): 2
FICI (P. aeruginosa AUMC-Pa-5; [4]): 1.063
MICa: MIC of the antibiotic (P. aeruginosa AUMC-Pa-5): 8/8
MICac: MIC of the antibiotic in the combination (P. aeruginosa AUMC-Pa-5): 8/8
FICI (P. aeruginosa AUMC-Pa-6; [4]): 0.313
MICa: MIC of the antibiotic (P. aeruginosa AUMC-Pa-6): 8
MICac: MIC of the antibiotic in the combination (P. aeruginosa AUMC-Pa-6): 2
FICI (P. aeruginosa PAO1; S3 Table, antibiotic + 2 μM D-11): 0.313
FICI (P. aeruginosa PAO1; S3 Table, antibiotic + 4 μM D-11): 0.375
MICac: the MIC for the antibiotic in the combination (P. aeruginosa PAO1; S3 Table, with 2 μM D-11): 1 µM
MICac: the MIC for the antibiotic in the combination (P. aeruginosa PAO1; S3 Table, with 4 μM D-11): 1 µM
MICa: the MIC of antibiotics (P. aeruginosa PAO1; S3 Table, antibiotic alone): 4 µM
FICI (P. aeruginosa ATCC27853): 0.375
MICa: MIC of the antibiotic (P. aeruginosa ATCC27853): 4
MICac: MIC of the antibiotic in the combination (P. aeruginosa ATCC27853): 1
MIC (P. aeruginosa NR-31040; Pseudomonas aeruginosa, NR31040, 18 h, read-out: MICa: MIC of the antibiotic): 8 µM
FICI (P. aeruginosa NR-31040; strain NR-31040, antibiotic + D-11 (MICb/MICbc 128/4)): 0.094
MICac: MIC of the antibiotic in the combination (P. aeruginosa NR-31040; [5]): 0.5
MIC (P. aeruginosa NR-31041; Pseudomonas aeruginosa, NR31041, 18 h, read-out: MICa: MIC of the antibiotic): 8.1 µM
FICI (P. aeruginosa NR-31041; strain NR-31041, antibiotic + D-11 (MICb/MICbc 64/4)): 0.188
FICI (P. aeruginosa PA14; [2]): 0.281
MICa: MIC of the antibiotic (P. aeruginosa PA14): 4
MICac: MIC of the antibiotic in the combination (P. aeruginosa PA14): 1
FICI (P. aeruginosa PAK; [4]): 0.313
MICa: MIC of the antibiotic (P. aeruginosa PAK): 4
MICac: MIC of the antibiotic in the combination (P. aeruginosa PAK): 1
FICI (P. aeruginosa HM-214; [2]): 0.281
FICI (P. aeruginosa AUMC-Pa-1; [2]): 0.281
FICI (P. aeruginosa AUMC-Pa-2; [4]): 0.563
MIC ([1]; read-out: Antibiotic sensibility (MIC) of clinical P. aeruginosa isolate AUMC-Pa-1, strain AUMC-Pa-1): 8 µM
MIC ([1]; read-out: Antibiotic sensibility (MIC) of clinical P. aeruginosa isolate AUMC-Pa-2, strain AUMC-Pa-2): 2 µM
MIC ([1]; read-out: Antibiotic sensibility (MIC) of clinical P. aeruginosa isolate AUMC-Pa-3, strain AUMC-Pa-3): 4 µM
MIC ([1]; read-out: Antibiotic sensibility (MIC) of clinical P. aeruginosa isolate AUMC-Pa-4, strain AUMC-Pa-4): 8 µM
MIC ([1]; read-out: Antibiotic sensibility (MIC) of clinical P. aeruginosa isolate AUMC-Pa-5, strain AUMC-Pa-5): 8 µM
MIC ([1]; read-out: Antibiotic sensibility (MIC) of clinical P. aeruginosa isolate AUMC-Pa-6, strain AUMC-Pa-6): 8 µM
MIC ([1]; read-out: Antibiotic sensibility (MIC) of clinical P. aeruginosa isolate HM-214, strain HM-214): 4 µM
MIC ([1]; read-out: Antibiotic sensibility (MIC) of clinical P. aeruginosa isolate NR-31040, strain NR-31040): 8 µM
MIC ([1]; read-out: Antibiotic sensibility (MIC) of clinical P. aeruginosa isolate NR-31041, strain NR-31041): 8 µM

Spiramycin
MICac: MIC of the antibiotic in the combination (P. aeruginosa AUMC-Pa-3; unit not given): 64
MICa: MIC of the antibiotic (P. aeruginosa AUMC-Pa-4): >128/>128
MICac: MIC of the antibiotic in the combination (P. aeruginosa AUMC-Pa-4): >128/>128
MICa: MIC of the antibiotic (P. aeruginosa AUMC-Pa-5): >128/128
MICac: MIC of the antibiotic in the combination (P. aeruginosa AUMC-Pa-5): >128/128
MICa: MIC of the antibiotic (P. aeruginosa AUMC-Pa-6): >128/128
MICac: MIC of the antibiotic in the combination (P. aeruginosa AUMC-Pa-6): >128/128
MIC of spiramycin alone (P. aeruginosa PAO1): higher than 128 μM
FICI (P. aeruginosa PAO1; spiramycin + D-11, 256 used for the calculation): 0.625
MICa: the MIC of antibiotics (P. aeruginosa PAO1; S1 Table, macrolide alone): >128/>128 μM and >128/128 μM
FICI (P. aeruginosa ATCC27853): 0.625
MICa: MIC of the antibiotic (P. aeruginosa ATCC27853): >128/128
MICac: MIC of the antibiotic in the combination (P. aeruginosa ATCC27853): >128/128
MICa: MIC of the antibiotic (P. aeruginosa NR-31040; strain NR-31040, antibiotic alone, unit not given): >128/128
MICac: MIC of the antibiotic in the combination (P. aeruginosa NR-31040; [5]): >128/128
MICa: MIC of the antibiotic (P. aeruginosa NR-31041; strain NR-31041, antibiotic alone, unit not given): >128/128
MICac: MIC of the antibiotic in the combination (P. aeruginosa NR-31041; strain NR-31041, with D-11 at MICbc 4, unit not given): >128/128
MICa: MIC of the antibiotic (P. aeruginosa PA14): >128/128
MICac: MIC of the antibiotic in the combination (P. aeruginosa PA14): >128/128
MICa: MIC of the antibiotic (P. aeruginosa PAK): >128/128
MICac: MIC of the antibiotic in the combination (P. aeruginosa PAK): >128/128
MICa: MIC of the antibiotic (P. aeruginosa HM-214; [3]): >128/128
MICac: MIC of the antibiotic in the combination (P. aeruginosa HM-214; [6]): >128/128
MICac: MIC of the antibiotic in the combination (P. aeruginosa AUMC-Pa-1; [6]): 64
MICa: MIC of the antibiotic (P. aeruginosa AUMC-Pa-2; [3]): >128/128
MICac: MIC of the antibiotic in the combination (P. aeruginosa AUMC-Pa-2; [6]): >128/128
Antibiotic sensibility (MIC) of clinical P. aeruginosa isolate AUMC-Pa-1 ([1]; strain AUMC-Pa-1): >128 µM
Antibiotic sensibility (MIC) of clinical P. aeruginosa isolate AUMC-Pa-2 ([1]; strain AUMC-Pa-2): >128 µM
Antibiotic sensibility (MIC) of clinical P. aeruginosa isolate AUMC-Pa-3 ([1]; strain AUMC-Pa-3): >128 µM
Antibiotic sensibility (MIC) of clinical P. aeruginosa isolate AUMC-Pa-4 ([1]; strain AUMC-Pa-4): >128 µM
Antibiotic sensibility (MIC) of clinical P. aeruginosa isolate AUMC-Pa-5 ([1]; strain AUMC-Pa-5): >128 µM
Antibiotic sensibility (MIC) of clinical P. aeruginosa isolate AUMC-Pa-6 ([1]; strain AUMC-Pa-6): >128 µM
Antibiotic sensibility (MIC) of clinical P. aeruginosa isolate HM-214 ([1]; strain HM-214): >128 µM
Antibiotic sensibility (MIC) of clinical P. aeruginosa isolate NR-31040 ([1]; strain NR-31040): >128 µM
Antibiotic sensibility (MIC) of clinical P. aeruginosa isolate NR-31041 ([1]; strain NR-31041): >128 µM
